From PubChem BioAssay (NCI)
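Results reflect a 48-hour exposure of cells in 96-well plates to compound at five concentrations. Abbreviation: GI50, concentration required for 50% inhibition of growth. TGI denotes the concentration required for complete inhibition of growth.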

Experiments:
Test in all cases: NCI-60 cell line screen, 48 h
[1] = test system: IGROV1 ovarian
[2] = test system: SK-MEL-2 melanoma
[3] = test system: TK-10 renal
[4] = test system: UACC-257 melanoma
[5] = test system: HL-60(TB) leukemia
[6] = test system: HOP-92 NSCLC
[7] = test system: MDA-MB-231 breast
[8] = test system: COLO 205 colon
[9] = test system: K-562 leukemia
[10] = test system: RPMI-8226 leukemia

| Compound | GI50 [1] | TGI [1] | GI50 [2] | TGI [2] | GI50 [3] | TGI [3] | GI50 [4] | TGI [4] | GI50 [5] | TGI [5] | GI50 [6] | TGI [6] | GI50 [7] | TGI [7] | GI50 [8] | TGI [8] | GI50 [9] | TGI [9] | GI50 [10] | TGI [10] |
| --- | --- | --- | --- | --- | --- | --- | --- | --- | --- | --- | --- | --- | --- | --- | --- | --- | --- | --- | --- | --- |
| O=C(O)CCCCCNCc1cc2cc3c(cc2c2cc(OCc4ccccc4)ccc12)OCO3 | 2.96 µM | 10.1 µM | 2.22 µM | 4.6 µM | 2.63 µM | 5.99 µM | 3.38 µM | 10.9 µM | 2.32 µM | 6.85 µM | 1.38 µM | 2.98 µM | 1.88 µM | 3.88 µM | – | – | – | – | – | – |
| OC[C@H]1C[C@](O)(c2ccccc2Cl)[C@@H](c2ccccc2Cl)O1 | 10.8 µM | 30.5 µM | – | – | 20.9 µM | 64.7 µM | 19 µM | 42.6 µM | 16.5 µM | 38.7 µM | 22.2 µM | 58.8 µM | 18.6 µM | 47.6 µM | 14.7 µM | 34.6 µM | 20 µM | 56.9 µM | 21.7 µM | 58.2 µM |
| O=C(CC1(O)C(=O)Nc2ccc(Cl)cc21)c1ccc(C(=O)NCC2CCC3(CC2)OOC2(CCCCC2)OO3)cc1 (stereo unspecified) | 0.482 µM | 2.89 µM | 2.16 µM | 4.78 µM | 1.78 µM | 3.28 µM | 6.48 µM | 24.2 µM | – | – | 0.509 µM | 2.08 µM | 2.68 µM | 7.72 µM | 3.09 µM | 12.3 µM | 1.89 µM | 4.48 µM | 1.73 µM | 4.72 µM |
| CC(C)(C)n1cc(-c2ccnc(NCCCNS(=O)(=O)c3cccc4ccccc34)c2)c(-c2cccc(O)c2)n1 | 2.14 µM | 4.68 µM | 1.88 µM | 4.06 µM | 2.85 µM | 9.73 µM | 2.07 µM | 4.39 µM | 2.68 µM | 7.26 µM | 1.71 µM | 5.07 µM | 2.32 µM | 5.64 µM | 1.89 µM | 3.72 µM | 1.48 µM | > 100 µM | – | – |
| COc1cc([C@H]2OC[C@@H]3C(c4cc(OC)c5c(c4)OCO5)OC[C@H]23)cc(OC)c1OC (stereo partly specified) | – | > 100 µM | – | > 100 µM | – | > 100 µM | – | > 100 µM | – | – | – | > 100 µM | – | > 100 µM | – | > 100 µM | – | > 100 µM | – | > 100 µM |
| O=C(/C=C/c1ccco1)Nc1ncc(Cc2cc(Cl)ccc2Cl)s1 | 0.0807 µM | > 100 µM | 0.148 µM | > 100 µM | 6.88 µM | > 100 µM | > 100 µM | > 100 µM | 0.0482 µM | 0.159 µM | 6.91 µM | > 100 µM | 0.157 µM | > 100 µM | – | – | 0.0344 µM | > 100 µM | 0.0634 µM | > 100 µM |
| CCCCCCCCCC(=O)Oc1ccc(/C(=C(/C)c2ccccc2)c2ccc(OCCN3CCCC3)cc2)cc1 | 8.67 µM | 19.5 µM | 9.49 µM | 18.1 µM | 8.86 µM | 16.7 µM | 9.23 µM | 16.8 µM | 9.24 µM | 18.7 µM | 7.01 µM | 15.4 µM | 10.2 µM | 20.2 µM | – | – | – | – | 9.13 µM | 21 µM |
